# Reference: patent publication US6890736B1, “Methods for producing proteins in cultured cells” (Immunex Corporation, priority 2002, dated 2005)
# Where “and” joins values, the source holds several entries; their conditions need not be identical. Equal entries are not always repeated.
# Test system: cell line 25H9 (CHO cells that produce IL-1R-II protein)
# Experiment: Example 2: optimization of temperature and decitabine concentration, IL-1R-II production
# Format: cell-based, Chinese hamster
# Description: About 2×10^6 cells of cell line 25H9 were inoculated into 30 milliliters of serum-free medium and incubated at the temperatures indicated in Table 1 in vented shake flasks. At the times indicated in Table 1, samples were taken from each flask to determine IL-1R-II titer, cell number, and cell viability. IL-1R-II protein titer was determined by ELISA assay. Cell number was determined by counting cells in a hemocytometer. Cell viability was determined by trypan blue staining and counting stained cells in a hemocytometer. Cumulative viable cell density (CVCD) is the area under the curve of a plot of the viable cell density versus time (in units of cells/ml/day). Productivity (pg of IL-1R-II/cell/day) was determined by dividing the protein titer on a particular day by the CVCD on the same day. Cells were fed with amino acids on days 2 and 5, and dextrose was added periodically in order to maintain levels above 2.0 g/L. All samples were done in duplicate, and the data shown is an average value.
# To determine an optimum temperature and decitabine concentration, three temperatures (30° C., 31° C., and 32° C.) and three decitabine concentrations (10 μM, 15 μM, and 20 μM) were tested. A 31° C. culture containing 0.5 mM sodium butyrate was grown as a control. […] See e.g. International Application Nos. WO 89/06686 and WO 87/05626. The experiment was performed as in Example 1 except that the inducer concentrations, temperatures, and days at which data was collected are as indicated in Table 2 and FIG. 1.
# [1] = 30° C., 10 μM decitabine, day 6
# [2] = 30° C., 10 μM decitabine, day 8
# [3] = 30° C., 15 μM decitabine, day 3
# [4] = 30° C., 15 μM decitabine, day 6
# [5] = 30° C., 20 μM decitabine, day 3
# [6] = 30° C., 20 μM decitabine, day 6
# [7] = 30° C., 20 μM decitabine, day 8
# [8] = 31° C., 10 μM decitabine, day 3
# [9] = 31° C., 10 μM decitabine, day 6
# [10] = 31° C., 10 μM decitabine, day 8
# [11] = 31° C., 15 μM decitabine, day 3
# [12] = 31° C., 15 μM decitabine, day 6
# [13] = 31° C., 15 μM decitabine, day 8
# [14] = 31° C., 20 μM decitabine, day 3
# [15] = 31° C., 20 μM decitabine, day 6
# [16] = 31° C., 20 μM decitabine, day 8
# [17] = 32° C., 10 μM decitabine, day 3
# [18] = 32° C., 10 μM decitabine, day 6
# [19] = 32° C., 10 μM decitabine, day 8
# [20] = 32° C., 15 μM decitabine, day 3
# [21] = 32° C., 15 μM decitabine, day 6
# [22] = 32° C., 20 μM decitabine, day 3
# [23] = 32° C., 20 μM decitabine, day 6
# [24] = 32° C., 20 μM decitabine, day 8
smiles,measurement,setting,value
"Nc1ncn([C@H]2C[C@H](O)[C@@H](CO)O2)c(=O)n1 [decitabine, 5-aza-2′-deoxycytidine]",Productivity,"30° C., 10 μM decitabine, day 3",9.2 pg IL-1R-II/cell/day
same,IL1R-II Titer,[1],156.5 µg/mL
same,Productivity,[1],10.9 pg IL-1R-II/cell/day
same,IL1R-II Titer,[2],260.5 µg/mL
same,Productivity,[2],14.4 pg IL-1R-II/cell/day
same,IL1R-II Titer,"30° C., 15 μM decitabine, day 0",0.0 µg/mL
same,IL1R-II Titer,[3],77.2 µg/mL
same,Productivity,[3],11.3 pg IL-1R-II/cell/day
same,IL1R-II Titer,[4],173.0 µg/mL
same,Productivity,[4],12.4 pg IL-1R-II/cell/day
same,IL1R-II Titer,"30° C., 15 μM decitabine, day 8",283.0 µg/mL
same,IL1R-II Titer,"30° C., 20 μM decitabine, day 0",0.0 µg/mL
same,IL1R-II Titer,[5],83.6 µg/mL
same,Productivity,[5],10.6 pg IL-1R-II/cell/day
same,IL1R-II Titer,[6],219.0 µg/mL
same,Productivity,[6],13.4 pg IL-1R-II/cell/day
same,IL1R-II Titer,[7],346.0 µg/mL
same,Productivity,[7],16.9 pg IL-1R-II/cell/day
same,IL-1R-II titer versus culture containing 0.5 mM sodium butyrate,"31° C., 10 μM decitabine, 8 days",higher titer
same,IL1R-II Titer,"31° C., 10 μM decitabine, day 0",0.0 µg/mL
same,IL1R-II Titer,[8],164.0 µg/mL
same,Productivity,[8],18.8 pg IL-1R-II/cell/day
same,IL1R-II Titer,[9],448.5 µg/mL
same,Productivity,[9],21.3 pg IL-1R-II/cell/day
same,IL1R-II Titer,[10],1087 µg/mL and 1087.0 µg/mL
same,Productivity,[10],38.1 pg IL-1R-II/cell/day
same,IL1R-II Titer,"31° C., 15 μM decitabine, day 0",0.0 µg/mL
same,IL1R-II Titer,[11],174.0 µg/mL
same,Productivity,[11],22.0 pg IL-1R-II/cell/day
same,IL1R-II Titer,[12],440.0 µg/mL
same,Productivity,[12],22.9 pg IL-1R-II/cell/day
same,IL1R-II Titer,[13],718.0 µg/mL
same,Productivity,[13],27.8 pg IL-1R-II/cell/day
same,IL1R-II Titer,"31° C., 20 μM decitabine, day 0",0.0 µg/mL
same,IL1R-II Titer,[14],162.0 µg/mL
same,Productivity,[14],17.6 pg IL-1R-II/cell/day
same,IL1R-II Titer,[15],426.0 µg/mL
same,Productivity,[15],19.6 pg IL-1R-II/cell/day
same,IL1R-II Titer,[16],774.5 µg/mL
same,Productivity,[16],27.1 pg IL-1R-II/cell/day
same,productivity on a per cell basis versus control culture grown in butyrate,"31° C., all cultures grown in decitabine","comparable to, and in some cases greater than"
same,IL-1R-II produced in 10 μM versus 15 μM or 20 μM decitabine,32° C.,produced more IL-1R-II
same,IL1R-II Titer,"32° C., 10 μM decitabine, day 0",0.0 µg/mL
same,IL1R-II Titer,[17],186.0 µg/mL
same,Productivity,[17],23.1 pg IL-1R-II/cell/day
same,IL1R-II Titer,[18],407.0 µg/mL
same,Productivity,[18],21.5 pg IL-1R-II/cell/day
same,IL1R-II Titer,[19],610.5 µg/mL
same,Productivity,[19],24.5 pg IL-1R-II/cell/day
same,IL1R-II Titer,"32° C., 15 μM decitabine, day 0",0.0 µg/mL
same,IL1R-II Titer,[20],189.0 µg/mL
same,Productivity,[20],23.5 pg IL-1R-II/cell/day
same,IL1R-II Titer,[21],410.0 µg/mL
same,Productivity,[21],22.5 pg IL-1R-II/cell/day
same,IL1R-II Titer,"32° C., 15 μM decitabine, day 8",478.0 µg/mL
same,IL1R-II Titer,"32° C., 20 μM decitabine, day 0",0.0 µg/mL
same,IL1R-II Titer,[22],184.5 µg/mL
same,Productivity,[22],22.2 pg IL-1R-II/cell/day
same,IL1R-II Titer,[23],492.0 µg/mL
same,Productivity,[23],26.3 pg IL-1R-II/cell/day
same,IL1R-II Titer,[24],488.5 µg/mL
same,Productivity,[24],20.7 pg IL-1R-II/cell/day
